Measured values from patent US20150297619A1, “METHODS AND COMPOSITIONS FOR PRESERVING THE MUCOSAL BARRIER” (priority 2014, published 2015).

How the values were obtained:
~20-kDa serine proteases = test: Gelatin gel zymography of plasma, lung and intestine samples renatured with serine protease inhibitors; type: biochemical, rat; conditions: 75 μmol/L ANGD or 100 lmol/L TLCK in renaturing and developing buffers, lung, intestine samples
Description: Protease Activity—Gelatin gel zymography was completed as previously described. When present, the luminal contents from the jejunal tissue were discarded by gentle compression of the intestine before homogenization to prevent excess digestion of the gelatin substrate in the gels by luminal proteases. Tissues from shocked animals (flushed and nonflushed) as well as controls were rinsed and blotted dry before weighing. Protein concentration was determined using the BCA kit before mixing each sample in a 1:1 ratio with loading dye (containing sodiumdodecyl sulfate (SDS), but no reducing agent). Two microgram protein/lane of intestine or 20 μg protein/lane of lung homogenates were loaded. Plasma (0.5 μL) was mixed with 2 μL loading dye and loaded into each lane.
Samples were separated by gel electrophoresis in 11% sodiumdodecyl sulfate polyacrylamide gel electrophoresis (SDS-PAGE) gelatin impregnated gels. Upon separation, gel proteins were renatured in 2.5% Triton-X 100 in water (49, 15 min) before incubation at 37° C. overnight in developing buffer (0.05 mol/L Tris base, 0.2 mol/L NaCl, 4 μmol/L ZnCl2, 5 mmol/L CaCl2.2H2O). Gels were then fixed and stained (50% methanol, 10% acetic acid, 40% water, and 0.25% Coomassie blue solution) for 3 h, destained in water to achieve appropriate contrast before digital analysis (ImageJ).
To confirm that the ˜20-kDa bands were serine proteases, gels were renatured and developed in the aforementioned buffers with the addition of either 75 μmol/L serine protease inhibitor ANGD (nafamostat mesilate) or 100 lmol/L trypsin inhibitor tosyl-lysine chloromethyl ketone (TLCK) and compared to duplicate gels that were subject to the standard renaturation procedure.

experimental shock = conditions: cited from earlier work
[1] = system: ischemic small intestine segments (jejunum to ileum); test: Ex vivo intestinal ischemia: transmural fluorescein transport across wall of flushed intestinal segments; design: species or system rat
Description: Intestinal Ischemia—Since intestinal properties are non-homogenous, the transmural permeability was investigated over the entire length of the jejunum and ileum. Due to physical constraints of the small intestine anatomy, it is not feasible to simultaneously analyze permeability from multiple segments in vivo. Therefore, an ex vivo approach similar to previously published studies was designed to measure permeability along the length of the small intestine.
A midline incision was made to expose the intestine in anesthetized rats. The proximal end of the jejunum (approximately 5 cm distal from the ligament of Treitz) was cannulated with a female luer to barb tube connector (⅛″ inner diameter). The intestine was removed and placed in saline immediately before euthanasia. In order to focus the analysis on permeability of the intestinal wall during ischemia in the absence of luminal contents (including the digestive proteases or cytotoxic factors from food), the lumen of the intestine was flushed with 40 ml saline using pulsatile pressure. Visual examination confirmed all solid contents were removed. Next, the intestine was cut into eight equal length segments (˜8 cm) sequentially ordered from the proximal jejunum (position 1) to the distal ileum (position 8). Both ends of each segment were cannulated with Female Luer to Barb tube connectors (thus allowing entry and exit points from the intestinal lumen to be sealed completely), secured with 4-0 suture, and the exterior portion of one adaptor on each segment sealed with clay.
To determine the transmural permeability of the intestine, all 8 segments from each animal were filled with a low molecular weight tracer as a sensitive measure of early barrier breakdown prior to the initiation of ischemia, fluorescein (332 Da M.W., 20 μg/ml from 5 mg/ml stock in ethanol; 0.308 osm/L; Sigma-Aldrich, St. Louis, Mo.) mixed with saline, glucose (100 mg/ml in saline; 0.550 moles/L; 0.863 osm/L, Sigma-Aldrich), the non-metabolizing glucose analog mannitol (100 mg/ml in saline; 0.550 moles/L; 0.863 osm/L), the serine protease inhibitor tranexamic acid (31 mg/ml in saline; 0.200 moles/L; 0.508 osm/L, Sigma-Aldrich), the MMP inhibitor doxycycline hyclate (1 mg/ml in saline; 1.955×10^−3 moles/L; 0.310 osm/L, Sigma-Aldrich), or the MMP inhibitor GM 6001 [38] (1 μg/ml in saline from 1 mg/ml stock in DMSO; 2.57×10^−6 moles/L; 0.308 osm/L, Millipore, Billerica, Md.). […]
Sealed segments were rinsed in saline, individually placed in 15 ml conical tubes containing 6 ml saline, and incubated at 37° C. for 2 hours to simulate ischemic conditions. […] Plates were read in a plate reader (FilterMax F-5 Multi-mode, Molecular Devices, Sunnyvale, Calif.) for concentration of fluorescein (excitation 494/emission 521) to measure diffusion across the wall of the intestine.
Permeability Analysis—To determine the fluorescein transport across the ischemic intestinal wall, the fluorescence at time 0 was subtracted from fluorescence values at later time points to correct for background, and fluorescence values were corrected to account for the volume reduction due to sampling during the experiment. The RFU measurements were converted to equivalent moles by using the linear relationship between concentration and fluorescein fluorescence (not shown, R^2=0.999). The transport of fluorescein across the wall (measured in moles, per time) was computed as the change in fluorescence over a 30 min interval divided by 30 min.

intestinal villi = test: Morphological analysis of intestinal villi after ex vivo ischemia (Van Gieson/hematoxylin); design: species or system rat; conditions: jejunum and ileum after 2 hrs ex vivo ischemia
Description: After the two-hour ischemic incubation, intestinal pieces from segments 2 (jejunum) and 7 (ileum) were embedded in O.C.T. (Tissue Tek, Torrance, Calif.) and snap frozen in t-methyl butane in liquid nitrogen. Intestine samples from segments 2 and 7 (for protease analysis) and segment 7 (for immunoblots) were snap frozen and stored for subsequent homogenization. Morphological Analysis and TUNEL Labeling—Intestinal segments frozen in O.C.T. were cut into 5 μm sections. Sections were fixed using ice-cold methanol (8 min at −20° C.) and immediately washed four times in distilled water. Nuclei were stained by incubating sections in freshly mixed Weigert's Iron Hematoxylin A and B (Electron Microscopy Science, Hatfield, Pa.) (10 min) followed by rinsing thoroughly with water. Collagen fibers were labeled by incubating (2 min) in Van Gieson's Solution (Electron Microscopy Science). Prior to mounting, all slides were dehydrated (70, 95, 100% ethanol) and cleaned with xylene. After air-drying overnight, sections were mounted using Hard Set Mounting Media (Vector Laboratories, Burlingame, Calif.). Digital images were captured with a 20× objective (numerical aperture 0.5) and digitally montaged together after background subtraction. The separation of the mucosal epithelial layer was quantified for groups that had intact villi following the two hour ischemic period. Images were blinded and the distance between the mucosal epithelial layer and the lamina propria was measured over five lengths across a minimum of 6 villi.

[2] = system: mucin 13, occludin, and E-cadherin; test: Immunoblots of epithelial barrier proteins in post-ischemic intestinal homogenates (segment 7); design: species or system rat; conditions: ileum segment 7, two hour ex vivo ischemia
Description: Immunoblotting—To determine whether selected epithelial barrier proteins were degraded during ischemia, pre- and post-ischemic intestinal tissue homogenates (segment 7) were analyzed for relative levels of mucin 13, occludin, and E-cadherin.
Tissues were homogenized for immunoblot analysis in buffer (CelLytic, Sigma-Aldrich) with protease inhibitor cocktail (HALT, Thermo Scientific, 1:100 dilution) and centrifuged (1×10^4 g, 20 min). Protein concentration in supernatants was determined (BCA, ThermoScientific). To separate proteins by gel electrophoresis, 30 μg of protein/well were loaded in 8 or 12% resolving gels with 4% stacking gels and transferred to nitrocellulose membranes (Bio-Rad, Hercules, Calif.). Membranes were blocked for one hour with either 5% bovine serum albumin (BSA) or 5% nonfat milk in tris-buffered saline with 0.5% Tween-20 (TBS-T). Primary antibodies diluted in 1% BSA or 1% nonfat milk against mucin 13 (1:1000, extracellular domain, sc-66973 Santa Cruz Biotechnology, Santa Cruz, Calif.), E-cadherin (1:1000, intracellular domain, 33-4000, Invitrogen), occludin (1:1000, intracellular domain, 33-1500, Invitrogen), pancreatic trypsin (1:1000, sc-137077 Santa Cruz Biotechnology), or β-actin (1:1000, sc-130301, Santa Cruz Biotechnology) were incubated overnight at 4° C. After incubation, membranes were washed with TBS-T (3×, 10 min) before addition of goat anti-rabbit or rabbit anti-mouse secondary antibodies (Santa Cruz Biotechnology) diluted 1:1000 in TBS-T. Following secondary antibody incubation (60 min), the membranes were washed with TBS-T (3×) and developed.

[3] = system: MMP-9 dimers, pro-MMP-2, MMP-2, MMP-1 or MMP-3; test: Gelatin gel zymography of pre-ischemic intestinal homogenates renatured with inhibitor: MMP bands; type: biochemical, rat; conditions: inhibitor in renaturing and developing buffer: tranexamic acid 20 mM, doxycycline 1 mg/ml, GM-6001 1 ug/ml
Description: Gelatin Gel Zymography—Segments 2 and 7 from pre-ischemic intestines were homogenized (0.1 g tissue/ml homogenization buffer; PBS pH 7.4 with 0.5% hexadecyltrimethyl bromide) and centrifuged at 1.4×10^4 g for 20 minutes. Supernatants were stored at −80° C. until samples were processed. To assess the proteolytic activities of individual proteases in intestinal tissue samples, sample volumes of 1 μl (with 2 μg of protein) were separated by gel electrophoresis in SDS-PAGE gels containing 80 μg/ml gelatin. […] The molecular weights of the proteases were estimated by use of a standard protein ladder (Invitrogen). Gels were digitized and bands were analyzed by densitometry in ImageJ (rsbweb.nih.gov/ij/). […] These gels were compared to a concurrently run gel processed normally.

20 kDa serine proteases = test: Gelatin gel zymography of pre-ischemic intestinal homogenates renatured with inhibitor: serine protease bands; type: biochemical, rat; conditions: inhibitor in renaturing and developing buffer: tranexamic acid 20 mM, doxycycline 1 mg/ml, GM-6001 1 ug/ml
Description: Gelatin Gel Zymography—Segments 2 and 7 from pre-ischemic intestines were homogenized (0.1 g tissue/ml homogenization buffer; PBS pH 7.4 with 0.5% hexadecyltrimethyl bromide) and centrifuged at 1.4×10^4 g for 20 minutes. Supernatants were stored at −80° C. until samples were processed.
To assess the proteolytic activities of individual proteases in intestinal tissue samples, sample volumes of 1 μl (with 2 μg of protein) were separated by gel electrophoresis in SDS-PAGE gels containing 80 μg/ml gelatin. […] The molecular weights of the proteases were estimated by use of a standard protein ladder (Invitrogen). Gels were digitized and bands were analyzed by densitometry in ImageJ (rsbweb.nih.gov/ij/).
These gels were compared to a concurrently run gel processed normally.

MMP-1/9 = test: Plasma MMP-1/9 activity by plate zymography after hemorrhagic shock; type: in vivo, rat; conditions: compared to the HS+SAL animals
Description: Enzyme and Protease Activity Measurements—All microplate assays were performed in duplicate in 96 well black-sided flat bottom polystyrene plates (Corning, New York, N.Y.) and measured in a microplate reader (FilterMax F-5 Multi-mode, Molecular Devices, Sunnyvale, Calif.). Plasma MMP-1/9 activity was also detected by plate zymography using a protease specific substrate (American Peptide Company, Sunnyvale, Calif.).

## CS(=O)(=O)O.CS(=O)(=O)O.N=C(N)Nc1ccc(C(=O)Oc2ccc3cc(C(=N)N)ccc3c2)cc1 [ANGD, 6-amidino-2-naphthyl p-guanidinobenzoate dimethanesulfonate]
~20-kDa serine proteases; dimethanesulfonate
  serine protease (~20 kDa) band intensities: substantial decrease
~20-kDa serine proteases; listed as nafamostat mesilate, dimethanesulfonate
  serine protease (~20 kDa) band intensities: disappeared
Experimental shock; enteral treatment in the small intestine
  microhemorrhages in the intestine: reduced microhemorrhages in the intestine
Experimental shock; enteral, similar model of HS (Altshuler et al. 2012)
  MPO infiltration into the lungs: attenuate MPO infiltration into the lungs

## CNC(=O)[C@H](Cc1c[nH]c2ccccc12)NC(=O)[C@@H](CC(=O)NO)CC(C)C [GM 6001, N-[(2R)-2-(hydroxamidocarbonylmethyl)-4-methylpentanoyl]-L-tryptophan methylamide]
[1]; ex vivo ischemia, inhibitor in lumen without glucose
  transmural permeability, 90-120 min period: more effective at reducing the transmural permeability compared to either doxycycline or tranexamic acid
[1]; ex vivo ischemia, inhibitor in lumen without glucose, vs saline
  fluorescein transport rates, 30-60 min and 60-90 min periods: significantly decreased compared to the saline treated intestines
Intestinal villi
  intestinal villi structure: did not prevent the villi destruction
[2]
  E-cadherin levels (immunoblot): neither doxycycline nor GM 6001 were effective
  mucin 13 levels (immunoblot): neither doxycycline nor GM 6001 were effective
  occludin levels (immunoblot): neither doxycycline nor GM 6001 were effective
[3]
  MMP gelatinase activity bands (220 kDa MMP-9 dimers, pro-MMP-2, MMP-2, 50 kDa band): reduced or eliminated
20 kDa serine proteases
  20 kDa serine protease activity bands: serine protease bands remained in all gels

## OC[C@@H](O)[C@@H](O)[C@H](O)[C@H](O)CO [Mannitol, mannitol]
[1]; ex vivo, treatment in lumen, two-hour ischemic period
  fluorescein transport across the wall of the intestine: neither prevented fluorescein penetration
Intestinal villi
  intestinal villi structure: nor preserved villi structure

## C[C@H]1c2cccc(O)c2C(=O)C2=C(O)[C@]3(O)C(=O)C(C(N)=O)=C(O)[C@@H](N(C)C)[C@@H]3[C@@H](O)[C@@H]21 [doxycycline]
MMP-1/9
  plasma MMP-1/9 activity reduction: 85%

## tosyl-lysine chloromethyl ketone [TLCK]
~20-kDa serine proteases
  serine protease (~20 kDa) band intensities: substantial decrease
~20-kDa serine proteases; listed as tosyllysine chloromethyl ketone hydrochloride
  serine protease (~20 kDa) band intensities: disappeared
